Several values for one entry are separate records, joined by “and”; a condition that tells them apart may be missing. Equal entries are not always repeated. After the bases stand the sugars from the 5' end (letter, count) and the backbone: PS all phosphorothioate, else s phosphorothioate and o phosphodiester by linkage. Methylation of C is not given here. k = constrained ethyl (cEt); d = 2'-deoxy (DNA)

Target mRNA inhibition data for 99 sequences are collected here from the OligoGym collection.

The target in the data set is MALAT1. Particulars: ASO, A431, 0.005 µM.
Turning to TGTTACACCTTGAGTC (sugars k3 d10 k3, PS), the target mRNA inhibition stood at 37%.

On to CCCAACCGTAACAGGC (sugars k3 d10 k3, PS), for which the target mRNA inhibition was determined as 22%.

On to GCCCCAACACTGAACT (sugars k3 d10 k3, PS), for which the target mRNA inhibition was 11%.

Take AAGCATTGCCCTTCTA (sugars k3 d10 k3, PS): the target mRNA inhibition was 46%.

On to TCGATGGAAAAATTTC (sugars k3 d10 k3, PS), for which the target mRNA inhibition was found to be 30%.

With GCTACCATCAGAAGAA (sugars k3 d10 k3, PS), the target mRNA inhibition was 22%.

Consider CACGGAAATTTTTCTA (sugars k3 d10 k3, PS), for which the target mRNA inhibition came to 8%.

In the case of TGGCGGACTTTCTCCC (sugars k3 d10 k3, PS), the target mRNA inhibition is 9%.

Take CAATGGACATCTCTTC (sugars k3 d10 k3, PS): the target mRNA inhibition stood at 49%.

With CACTACTCCAAGCATT (sugars k3 d10 k3, PS), the target mRNA inhibition was determined as 23%.

Take TACAAACTGCTTACAG (sugars k3 d10 k3, PS): the target mRNA inhibition was determined as 39%.

As for CCTGCCTTAAAGTTAC (sugars k3 d10 k3, PS), the target mRNA inhibition was 20%.

In the case of CTAATAGCAGCGGGAT (sugars k3 d10 k3, PS), the target mRNA inhibition came out at 22%.

With CTCCATGAAGAAGCTT (sugars k3 d10 k3, PS), the target mRNA inhibition is 49%.

TTCTAGCTTCAAGTAT (sugars k3 d10 k3, PS): the target mRNA inhibition was found to be 25%.

For TTCAACTGGAAGCTCC (sugars k3 d10 k3, PS), the target mRNA inhibition is 58% and 57%.

As to CTTCTAAGTTTGTACA (sugars k3 d10 k3, PS), the target mRNA inhibition turned out to be 47%.

Regarding CAATGCATTCTAATAG (sugars k3 d10 k3, PS), the target mRNA inhibition was 18%.

For CTTGAATGCAAACTAC (sugars k3 d10 k3, PS), the target mRNA inhibition is -6%.

As to ACTGAACTGTTTAAAC (sugars k3 d10 k3, PS), the target mRNA inhibition was 6%.

Turning to ATCATTGGGAGTTACT (sugars k3 d10 k3, PS), the target mRNA inhibition is 54%.

For the sequence AATCCCCCCCAAGATT (sugars k3 d10 k3, PS), the target mRNA inhibition is -5%.

ACATTGCCTACCACTC (sugars k3 d10 k3, PS): the target mRNA inhibition came out at 16%.

Turning to AAGAGCATTGGAGATC (sugars k3 d10 k3, PS), the target mRNA inhibition came out at 33%.

With CCAAATCGCACTGGCT (sugars k3 d10 k3, PS), the target mRNA inhibition was 16%.

With TATATTTAAGGCCTTC (sugars k3 d10 k3, PS), the target mRNA inhibition is 45%.

Regarding ATAGACGGAGAACAAC (sugars k3 d10 k3, PS), the target mRNA inhibition is 21%.

For the sequence ATAGCAGCGGGATCAG (sugars k3 d10 k3, PS), the target mRNA inhibition is 57%.

Consider CTTAGTAACCTATTGA (sugars k3 d10 k3, PS), for which the target mRNA inhibition was found to be 34%.

For the sequence TATCACTCAGCTGGAT (sugars k3 d10 k3, PS), the target mRNA inhibition stood at 34%.

As to AGAACCACACACTACC (sugars k3 d10 k3, PS), the target mRNA inhibition was determined as 23%.

For the sequence CTGCACCACCAGAAAT (sugars k3 d10 k3, PS), the target mRNA inhibition came out at 20%.

In the case of TCTGCGGTTTCCTCAA (sugars k3 d10 k3, PS), the target mRNA inhibition was 49%.

On to GTACACTCCTTCTCTA (sugars k3 d10 k3, PS), for which the target mRNA inhibition came out at 17%.

Regarding GTCCAATGCAAAAACA (sugars k3 d10 k3, PS), the target mRNA inhibition was -5%.

Consider TTTCCCCAATCAAGAT (sugars k3 d10 k3, PS), for which the target mRNA inhibition is -4%.

For the sequence TGTCTAAGAGGTTATT (sugars k3 d10 k3, PS), the target mRNA inhibition was determined as 10%.

On to CTGAAAACTCCCCCCC (sugars k3 d10 k3, PS), for which the target mRNA inhibition is -2%.

In the case of CTCCCCCATTATATTA (sugars k3 d10 k3, PS), the target mRNA inhibition turned out to be 31%.

For the sequence CTTATCAATTCACCAA (sugars k3 d10 k3, PS), the target mRNA inhibition amounted to 47%.

With GATTCACTGAATCCAC (sugars k3 d10 k3, PS), the target mRNA inhibition was found to be 8%.

Turning to CTATTCCTTTCATAGA (sugars k3 d10 k3, PS), the target mRNA inhibition was -11%.

For GATATTGTGCTGTTAC (sugars k3 d10 k3, PS), the target mRNA inhibition was -17%.

Turning to AGATGGACATTGCCTC (sugars k3 d10 k3, PS), the target mRNA inhibition came to 48%.

As for TATTGGAAAACTTAAC (sugars k3 d10 k3, PS), the target mRNA inhibition was 26%.

For the sequence CGCCTTTGTGAGGGAG (sugars k3 d10 k3, PS), the target mRNA inhibition is -3%.

Regarding GGATGTATATAGTTCA (sugars k3 d10 k3, PS), the target mRNA inhibition stood at 30%.

Turning to ACTAAACAATTACCTA (sugars k3 d10 k3, PS), the target mRNA inhibition came out at 9%.

Consider CTCAAATGCCTATCTT (sugars k3 d10 k3, PS), for which the target mRNA inhibition was 19%.

With TGGTTATAGCTTGACA (sugars k3 d10 k3, PS), the target mRNA inhibition was 82% and 95%.

CTGCCAGGCTGGTTAT (sugars k3 d10 k3, PS): the target mRNA inhibition was found to be 1%.

With GCTCTAGTTTCTATAA (sugars k3 d10 k3, PS), the target mRNA inhibition came to 27%.

Take GCAGATAATGTTCTCA (sugars k3 d10 k3, PS): the target mRNA inhibition is 73% and 95%.

As to GCTACTATATTTAAGG (sugars k3 d10 k3, PS), the target mRNA inhibition stood at 29%.

On to GGAATTATTATATGCT (sugars k3 d10 k3, PS), for which the target mRNA inhibition worked out at 54%.

Turning to AATTGCACTCGCTCCT (sugars k3 d10 k3, PS), the target mRNA inhibition is 29%.

Consider AGATAATGTTCTCATC (sugars k3 d10 k3, PS), for which the target mRNA inhibition is 11%.

As for CGTTTTTCAGCTTCCA (sugars k3 d10 k3, PS), the target mRNA inhibition was 7%.

With GGTGAGGCTGACACTT (sugars k3 d10 k3, PS), the target mRNA inhibition was 27%.

Take AATGGTAGATTCCGTA (sugars k3 d10 k3, PS): the target mRNA inhibition amounted to 47%.

In the case of CTGCGCTGGCTGCCTC (sugars k3 d10 k3, PS), the target mRNA inhibition was 30%.

On to GCCTTCGGTGCCTTTA (sugars k3 d10 k3, PS), for which the target mRNA inhibition was -2%.

As for GAACTATCACAATTCT (sugars k3 d10 k3, PS), the target mRNA inhibition came to 3%.

As to GAGGCAAACGAAACAT (sugars k3 d10 k3, PS), the target mRNA inhibition amounted to 1%.

Take TTGCTCGCTTGCTCCT (sugars k3 d10 k3, PS): the target mRNA inhibition was found to be 40%.

Regarding CATCAAACACTGGTTC (sugars k3 d10 k3, PS), the target mRNA inhibition came to 14%.

As to TGGAACTTGAATGCAA (sugars k3 d10 k3, PS), the target mRNA inhibition amounted to 10%.

As to GCCTGCTCGCCTCCTC (sugars k3 d10 k3, PS), the target mRNA inhibition is 41%.

Regarding AATTACCTAAACCCAC (sugars k3 d10 k3, PS), the target mRNA inhibition was 0%.

As for TTCTGATAACGAAGAG (sugars k3 d10 k3, PS), the target mRNA inhibition amounted to 8%.

On to CATCACCAAATTGCAC (sugars k3 d10 k3, PS), for which the target mRNA inhibition came to 28%.

For the sequence GAGAACTGCTCTAGTT (sugars k3 d10 k3, PS), the target mRNA inhibition turned out to be 34%.

Consider GGTTACCATAAGTAAG (sugars k3 d10 k3, PS), for which the target mRNA inhibition is 37%.

Regarding TATTAAGAGCTGCTAT (sugars k3 d10 k3, PS), the target mRNA inhibition was 25%.

Consider CTGGAATGGCCAGCCT (sugars k3 d10 k3, PS), for which the target mRNA inhibition is 15%.

As for TGCTCGCCTCCTCCGT (sugars k3 d10 k3, PS), the target mRNA inhibition stood at 34%.

Take CACAATTCTTAATCAG (sugars k3 d10 k3, PS): the target mRNA inhibition is 41%.

On to ATACTTGTCTTAGCTT (sugars k3 d10 k3, PS), for which the target mRNA inhibition was 60% and 75% and 50%.

Take TGAGTATGCTGATAAA (sugars k3 d10 k3, PS): the target mRNA inhibition came out at 41%.

Turning to AAATCATTGGGAGTTA (sugars k3 d10 k3, PS), the target mRNA inhibition is 24%.

As for TGCGCTTAAGAGGGCA (sugars k3 d10 k3, PS), the target mRNA inhibition was determined as 7%.

As to CTCTAAGATTGTAAGC (sugars k3 d10 k3, PS), the target mRNA inhibition was determined as 16%.

Turning to GCCTCTTCATTGTATT (sugars k3 d10 k3, PS), the target mRNA inhibition is 10%.

Regarding TTAACCAACTTCCCCT (sugars k3 d10 k3, PS), the target mRNA inhibition amounted to 43%.

On to TCAAGCATTCCTTCGG (sugars k3 d10 k3, PS), for which the target mRNA inhibition is 73% and 67%.

As for TGGTCTAGGATCCTCT (sugars k3 d10 k3, PS), the target mRNA inhibition was -15%.

Consider GCCTCCTCAATCCACT (sugars k3 d10 k3, PS), for which the target mRNA inhibition came to 16%.

For CACTTGCCAGTTTAAT (sugars k3 d10 k3, PS), the target mRNA inhibition came out at 29%.

Regarding AAATTGCACTCGCTCC (sugars k3 d10 k3, PS), the target mRNA inhibition was found to be 28%.

With GAACCCCGTCCTGGAA (sugars k3 d10 k3, PS), the target mRNA inhibition was -18%.

As to TTATAGACGGAGAACA (sugars k3 d10 k3, PS), the target mRNA inhibition was 8%.

Take CCGTTACGAAAGTCCT (sugars k3 d10 k3, PS): the target mRNA inhibition was 67% and 56%.

ACGCCTCAATCCCACA (sugars k3 d10 k3, PS): the target mRNA inhibition came to 27%.

Regarding TTAAACGGGTCATCAA (sugars k3 d10 k3, PS), the target mRNA inhibition was 0%.

As for TGAAAACTCCCCCCCG (sugars k3 d10 k3, PS), the target mRNA inhibition was determined as 21%.

As for CCCAACACTGAACTAC (sugars k3 d10 k3, PS), the target mRNA inhibition came to 19%.

For TACTTCATTACCCCAA (sugars k3 d10 k3, PS), the target mRNA inhibition amounted to 34%.

For the sequence TACTTGCCAACAGAAC (sugars k3 d10 k3, PS), the target mRNA inhibition was 19%.

With ATATTTTGCCCCCACC (sugars k3 d10 k3, PS), the target mRNA inhibition was found to be 2%.
